The subject of one assay is rats. Put plainly: In vivo inhibition of increase in plasma cholesterol level in rats fed a cholesterol supplemented diet. Also on record: species or system rat. The following applies: 0.03% w/w test compound in cholesterol supplemented diet, after 3 days, 100% or more = similar to control rats on normal diet. The method, then: In assays performed in vitro microsomes, prepared from the livers of rats fed a diet supplemented with 0.5% w/w cholesterol and 0.25% w/w cholic acid for 7 days, were incubated with radiolabelled oleoyl-CoA in the presence of compounds according to the invention at a concentration of 1μg/ml.
Values of 100% or more indicate plasma cholesterol concentrations that were similar to those of control rats fed on a normal (non-supplemented) diet.

For assay [1], the target named is T1, acyl coenzyme-A:cholesterol-O-acyl transferase (ACAT;EC 2.3.1.26) (Rattus norvegicus, UniProt Q7TQM4).
T1 construct: microsomes, prepared from the livers of rats; from tissue; host or cells: liver microsomes of rats fed 0.5% w/w cholesterol and 0.25% w/w cholic acid for 7 days
T1 sequence (Q7TQM4 1-524): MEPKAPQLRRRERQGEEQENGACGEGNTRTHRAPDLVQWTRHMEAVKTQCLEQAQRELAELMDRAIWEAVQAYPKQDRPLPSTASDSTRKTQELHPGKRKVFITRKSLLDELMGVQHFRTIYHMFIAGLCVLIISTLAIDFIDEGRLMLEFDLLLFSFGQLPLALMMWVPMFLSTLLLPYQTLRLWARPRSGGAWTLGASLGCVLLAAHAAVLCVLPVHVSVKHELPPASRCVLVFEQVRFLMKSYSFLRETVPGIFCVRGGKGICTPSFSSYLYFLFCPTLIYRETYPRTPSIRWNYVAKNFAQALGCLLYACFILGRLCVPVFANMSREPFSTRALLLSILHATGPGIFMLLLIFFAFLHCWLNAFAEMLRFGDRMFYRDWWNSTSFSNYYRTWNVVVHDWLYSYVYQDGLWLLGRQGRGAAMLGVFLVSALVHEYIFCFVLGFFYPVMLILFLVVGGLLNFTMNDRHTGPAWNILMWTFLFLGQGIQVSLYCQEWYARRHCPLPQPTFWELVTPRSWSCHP
Put plainly: In vitro ACAT inhibition in liver microsomes of cholesterol-fed rats, radiolabelled oleoyl-CoA. The class given is biochemical. To be noted: 1μg/ml; microsomes from livers of rats fed 0.5% w/w cholesterol and 0.25% w/w cholic acid for 7 days; read-out: In-vitro % Inhibition (degree of ACAT inhibition). (In general: Liver microsomes are a subcellular fraction often used to study metabolism.)

One may read the inhibition as the change of the read-out against control, counted positive when it falls.

Consider `c1ccc(-c2nc(C3OCCCO3)[nH]c2-c2ccccc2)cc1` [Compound A, 2-(1,3-dioxan-2-yl)-4,5-diphenylimidazole], for which the “In-vivo % Reduction (inhibition of increase in plasma cholesterol level relative to control animals)” value with rats was determined as 86%. For the same compound, the inhibition at 1 µg/mL in assay [1] came out at 94%.
For the compound `CC1CC(C)OC(c2nc(-c3ccccc3)c(-c3ccccc3)[nH]2)O1` (racemic) [Compound C, (±)-cis/trans-2-(4,6-dimethyl-1,3-dioxan-2-yl)-4,5-diphenylimidazole], the inhibition at 1 µg/mL in assay [1] was 74%.

These data come from US5102900A, “Imidazoles useful as antiatherosclerotic agents” (Rhone-Poulenc Rorer S.A., priority 1989, dated 1992).
